Laboratory results taken from patent US20240300923A1, “IRAK4 Inhibitors” (ASTRAZENECA AB, priority 2022, published 2024).

Key:
[1] = Human plasma protein binding, equilibrium dialysis (RED device); type: in vitro ADME; conditions: for fraction unbound at 18 h, 5 μM: human, plasma, pH 7.4
Description: Plasma protein binding may have important implications on the pharmacokinetic behaviour of drugs. This is especially true for highly bound drugs, where the fraction unbound (fu) drug in plasma is an important parameter in the interpretation of in-vivo experiments. Traditionally, there are several different techniques used to determine the extent of drug binding to plasma proteins and equilibrium dialysis is probably the most common.
This method describes our current automated equilibrium dialysis assay in human plasma using the RED (Rapid Equilibrium Dialysis) Device and Hamilton sample handling system, described in WernevikJ et al. (2020) “A Fully Integrated Assay Panel for Early Drug Metabolism and Pharmacokinetics Profiling” Assay. Drug. Dev. Technol 18:157-179; DOI 10.1089/adt.2020.970.
The assay generally runs over three days including delivery of results. The pooled compounds are diluted in plasma to 5 μM and added to the inner chamber of the RED device and a phosphate buffer (pH 7.4) to the surrounding chamber to allow equilibrium dialysis over a semipermeable membrane with a molecular weight cut off at 8 kDa. The 5 μM solutions are also used to establish compound stability in plasma and recovery (mass balance) in the RED devices, with sampling performed at both the 0 and 18 h timepoints. Low recovery indicates binding to the dialysis equipment or solubility issues.
After dialysis for 18 hours, plasma and buffer samples are prepared for analysis by liquid chromatography and mass spectrometry (LC/MSMS). A seven-point calibration curve in plasma, ranging from 1.4 nM to 7 μM, is used to quantify the samples. All samples including the calibration curve, also contain an internal standard (IS) to allow for normalization between variations in injection volume in the UPLC-MS/MS instrumentation.
Three quality controls (QCs) are used in each run. Warfarin with low fu (fu mean ˜1%) is used as a control in each pool. Propranolol (˜30%) and Metoprolol (˜90%) are placed randomly in each run. The controls are monitored in the “Manhattan tool” (Winiwarter et al. (2015) “Time dependent analysis of assay comparability: a novel approach to understand intra-and inter-site variability over time” J. Comput. Aided Mol. Des. 29:795-807; DOI10.1007/s10822-015-9836-5), that defines the acceptance criteria for the QCs as 2.58×standard deviation.

IRAK4 [2] = target: T1, IRAK4 (Homo sapiens (Human), UniProt Q9NWZ3); assay: IRAK4 enzyme assay (mass spectrometry readout); type: biochemical; conditions: human recombinant IRAK4 0.2 nM, 3 mM ATP; geometric mean of at least 2 experiments
T1 sequence (Q9NWZ3 whole entry): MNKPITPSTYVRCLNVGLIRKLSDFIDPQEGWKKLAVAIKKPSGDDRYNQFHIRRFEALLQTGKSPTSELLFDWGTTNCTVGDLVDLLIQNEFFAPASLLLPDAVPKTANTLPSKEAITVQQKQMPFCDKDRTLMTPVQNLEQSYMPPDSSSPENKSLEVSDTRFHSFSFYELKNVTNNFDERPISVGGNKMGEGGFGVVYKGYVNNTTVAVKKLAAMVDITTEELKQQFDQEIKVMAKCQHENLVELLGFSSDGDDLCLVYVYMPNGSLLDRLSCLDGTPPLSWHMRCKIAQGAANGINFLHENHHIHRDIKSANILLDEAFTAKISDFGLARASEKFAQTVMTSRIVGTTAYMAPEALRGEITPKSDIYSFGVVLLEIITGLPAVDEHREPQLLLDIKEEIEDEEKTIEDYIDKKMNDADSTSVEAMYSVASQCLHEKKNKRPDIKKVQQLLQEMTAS
Experimental: Potency of IRAK4 Inhibitor Compounds in IRAK4 Enzyme Assay
The inhibitory activity of compounds against IRAK4 were determined in an enzymatic assay using mass spectrometry readout. Ten point half-log compound concentration response curves, with a top concentration of 1 μM or 10 μM, were generated from 10 mM stocks of compound solubilized in DMSO using an Echo 655 (Labcyte Inc) and added to 384 well assay plates (Greiner #781280). To the assay plates, 10 μL of human recombinant IRAK4 protein (Life Technologies #PV4002) diluted to a final concentration of 0.2 nM in assay buffer (50 mM Tris-HCl pH 7.4, 10 mM MgCl, 5 mM glutathione, 0.01% BSA, 3 mM ATP) was added. The enzyme was incubated with the compounds at room temperature for 15 minutes before a peptide substrate ([…], Innovagen custom synthesis, 10 mM in DMSO) was added to each well to a final concentration of 10 μM using an Echo 655 (Labcyte Inc). After two hours at room temperature, the reaction was stopped with 65 μL of 0.4% formic acid (Merck #33015). The unphosphorylated and phosphorylated peptide were measured by LC-MS/MS on a Waters TQ-S mass spectrometer. Peaks were integrated using the TargetLynx software and the ratios between phosphorylated and unphosphorylated peptides were calculated. Curves were fitted and compound potencies determined in Genedata Screener 19 (Genedata AG). IC50 values are the geometric mean of at least 2 experiments.

IRAK4 [3] = target: T1, IRAK4; assay: IRAK4 phosphorylation cell assay (IL-1β-stimulated Karpas-299 cells); type: cell-based; conditions: IRAK4 auto-phosphorylation (pIRAK4 Thr345/Ser346) in IL-1β-stimulated Karpas-299 cells; geometric mean of at least 2 experiments
Experimental: IRAK4 Phosphorylation Cell Assay
The activation of IRAK4 by TLR or IL-1R ligands leads to IRAK4 auto-phosphorylation, which can be prevented by IRAK4 kinase inhibitors. The effect of IRAK4 inhibitor compounds on IRAK4 auto-phosphorylation was assessed in IL-1β-stimulated Karpas-299 cells as a measurement of cellular potency. Karpas-299 cells were cultured in RPMI 1640 (Gibco 61870-010) containing 10% FBS (Gibco #10270). Cells were plated at 2×10^4 cells per well in poly-D-lysine coated 384 well plates (Corning #356663) to which compounds had been added at various concentrations (10 point half log dose response with a final top concentration of 30 μM) using an Echo 655 (Labcyte Inc). Cells were centrifuged (250 g, 4 mins), incubated at 37° C. for 1 h, then stimulated with 22.7 ng/mL recombinant IL-1β (R&D Systems, #201-LB-025) at 37° C. for 10 mins, followed by fixation in 4% paraformaldehyde for 20 mins and permeabilization in ice-cold 70% MeOH in PBS for 30 mins. Cells were washed twice with phosphate-buffered saline (PBS) on a BlueWasher (BlueCatBio) then blocked with PBS containing 10% FBS for 20 mins. Blocking solution was removed with a BlueWasher and cells were stained with anti-pIRAK4 (Thr345/Ser346) (CST, #11927, 1:400) in blocking buffer with 0.05% Tween-20 for 1 h, then washed twice with PBS containing 0.05% Tween-20 on a BlueWasher, followed by staining with a Alexa 647-conjugated secondary anti-rabbit IgG antibody (CST, #4414, 1:2,000) and Hoechst 33342 (Sigma, 1:2,000) in blocking buffer with 0.05% Tween-20 for 30 mins. Finally, the cells were washed twice with PBS containing 0.05% Tween-20 and imaged on an ImageXpress Micro (Molecular Devices) with a 10× air objective using the appropriate filters. Images were analysed in Columbus (PerkinElmer) and the fluorescence intensity per cell from the secondary antibody was quantified. The quantified data were analysed in Genedata Screener 19 (Genedata AG). […] IC50 values are the geometric mean of at least 2 experiments.

Row | fraction unbound at 18 h, 5 μM [1] | SMILES | IC50 (IRAK4 [2]) | IC50 (IRAK4 [3]) | Hu PPB (% free) ([1]; human plasma, 5 μM, dialysis 18 hours, single experiment or average of two or more)
1 | ~0.01 | CC(=O)CC(c1ccccc1)c1c(O)c2ccccc2oc1=O (stereo not drawn) [Warfarin] |  |  | 
2 | ~0.3 | CC(C)NCC(O)COc1cccc2ccccc12 (stereo not drawn) [Propranolol] |  |  | 
3 | ~0.9 | COCCc1ccc(OCC(O)CNC(C)C)cc1 (stereo not drawn) [Metoprolol] |  |  | 
4 |  | COc1cc2nn([C@H]3CC[C@@]4(CC3)COC(=O)N4C)cc2cc1C(=O)Nc1cccn(C)c1=O [Example 20, 6-Methoxy-N-(1-methyl-2-oxo-1,2-dihydropyridin-3-yl)-2-((5s,8s)-1-methyl-2-oxo-3-oxa-1-azaspiro[4.5]decan-8-yl)-2H-indazole-5-carboxamide] | 5.6 nM | 128 nM | 14 % free
